The values that follow come from paper PMC6153800, “Structure-Based Drug Design and Characterization of Sulfonyl-Piperazine Benzothiazinone Inhibitors of DprE1 from Mycobacterium tuberculosis” (Antimicrobial Agents and Chemotherapy, 2018).

In brackets after ≈: the same amount, converted by molar mass.

This test concerns M. tuberculosis NTB1 (DprE1 C387S mutant). It is filed as cell-based, Mycobacterium tuberculosis.
For the molecule `O=c1nc(N2CCN(CC3CCCCC3)CC2)sc2c([N+](=O)[O-])cc(C(F)(F)F)cc12` [PBTZ169, macozinone, reference compound], the “MIC99 NTB1” value was greater than 100 µg/mL.

For `CO[C@H]1/C=C/O[C@@]2(C)Oc3c(C)c(O)c4c(O)c(c(/C=N/N5CCN(C)CC5)c(O)c4c3C2=O)NC(=O)/C(C)=C\C=C\[C@H](C)[C@H](O)[C@@H](C)[C@@H](O)[C@@H](C)[C@H](OC(C)=O)[C@@H]1C` [Rifampin, reference compound], the “MIC99 NTB1” value was determined as 0.0008 µg/mL (≈ 0.000972 µM).

On to `O=c1nc(N2CCN(S(=O)(=O)c3cccs3)CC2)sc2c([N+](=O)[O-])cc(C(F)(F)F)cc12` [compound 11326059], for which the “MIC99 NTB1” value is greater than 100 µg/mL.

`O=c1nc(N2CCN(S(=O)(=O)C3CCCCC3)CC2)sc2c([N+](=O)[O-])cc(C(F)(F)F)cc12` [compound 11326127]: the “MIC99 NTB1” value was greater than 100 µg/mL.

As to `O=c1nc(N2CCN(S(=O)(=O)C3CC3)CC2)sc2c([N+](=O)[O-])cc(C(F)(F)F)cc12` [compound 11626091], the “MIC99 NTB1” value was determined as 14.7 µg/mL (≈ 31.7 µM).

Take `CCS(=O)(=O)N1CCN(c2nc(=O)c3cc(C(F)(F)F)cc([N+](=O)[O-])c3s2)CC1` [compound 11626092]: the “MIC99 NTB1” value amounted to 25.1 µg/mL (≈ 55.5 µM).

Consider `CCCCS(=O)(=O)N1CCN(c2nc(=O)c3cc(C(F)(F)F)cc([N+](=O)[O-])c3s2)CC1` [compound 11626093], for which the “MIC99 NTB1” value was greater than 100 µg/mL.

As to `O=c1nc(N2CCN(S(=O)(=O)c3cccc4cnccc34)CC2)sc2c([N+](=O)[O-])cc(C(F)(F)F)cc12` [compound 11626094], the “MIC99 NTB1” value was greater than 100 µg/mL.

Take `CS(=O)(=O)N1CCN(c2nc(=O)c3cc(C(F)(F)F)cc([N+](=O)[O-])c3s2)CC1` [compound 11626095]: the “MIC99 NTB1” value is 75 µg/mL (≈ 171 µM).
